Test results taken from patent US20060014826A1, “Dioxocyclohexane carboxylic acid phenyl amide derivatives for modulating voltage-gated potassium channels and pharmaceutical compositions containing the same” (Wyeth, priority 2004, published 2006).

How the values were obtained:
[1] = target: T1, human Kv1.1/Kvβ1 potassium ion channel complex (Homo sapiens, UniProt Q09470+Q14722); test: Inhibiting the inactivation of Kv1.1/Kvβ1 potassium ion channel complex, voltage clamp current recordings in Xenopus oocytes; assay type: cell-based; details: relative to control oocytes without test compound, read-out: Percent Increase in Steady State Current (@ concentration shown in parentheses)
T1 construct: expressed in transfected cells; host or cells: Xenopus oocytes injected with cRNA
Protocol: Compounds useful in this invention were examined for their ability to inhibit the inactivation of the human Kv1.1/Kvβ1 potassium ion channel complex in vitro using electrophysiological current recordings on inactivating Kv1.1/Kvβ1channels expressed in Xenopus oocytes. The following procedure was used.
Xenopus oocytes were harvested from frogs under general anesthesia using aseptic techniques. Oocytes were treated with 2 mg/ml collagenase for 1-1.5 hr, defolliculated, and injected with 40 nL cRNA (a mixture of hKv1.1 and hKvβ1) produced using standard molecular biological techniques (Sambrook, et al., 1989, Molecular Cloning: A Laboratory Manual). The concentration of hKv1.1/hKvβ1 cRNA varies, but was generally about 50 ng/μL hKv1.1 and […] hkβ1.
Currents were recorded using standard voltage clamp amplifiers at room temperature. Recordings were performed in the bath solution “ND-96” containing 96 mM NaCl, 2 mM KCl, 1 mm CaCl2, 1 mM MgCl2, 10 mM HEPES and […] Gentamycin (pH=7.6). The pipette (electrode) solution generally consisted of 3 mM KCl. Electrodes were made from WPI TW150F-4 borosilicate glass (or equivalent) and typically had resistances of 0.5-1.5 Mohms. The standard current—voltage (IV) pulse protocol consisted of voltage steps from −60 mV to +50 mV, in 10 mV increments for 200 ms, at a frequency of one IV set per 2 minutes. Data were digitized and analyzed by standard software packages.
Test compounds where first dissolved in DMSO to an initial concentration of 1-100 mM. Working dilutions of 1:2000 to 1:500 were made in the bath solution for final concentrations in the micromolar range. The bath solutions containing the test compounds were applied by bath perfusion using gravity or pump-driven flow. A minimum of 2 mL (10 times the bath volume) over 3 minutes were flowed for each compound concentration tested. Data were averaged across at least 3 cells tested for each concentration.
Test compounds were examined for their ability to inhibit the inactivation of the steady state portion of the IV curve.

T1 sequence (Q09470 whole entry): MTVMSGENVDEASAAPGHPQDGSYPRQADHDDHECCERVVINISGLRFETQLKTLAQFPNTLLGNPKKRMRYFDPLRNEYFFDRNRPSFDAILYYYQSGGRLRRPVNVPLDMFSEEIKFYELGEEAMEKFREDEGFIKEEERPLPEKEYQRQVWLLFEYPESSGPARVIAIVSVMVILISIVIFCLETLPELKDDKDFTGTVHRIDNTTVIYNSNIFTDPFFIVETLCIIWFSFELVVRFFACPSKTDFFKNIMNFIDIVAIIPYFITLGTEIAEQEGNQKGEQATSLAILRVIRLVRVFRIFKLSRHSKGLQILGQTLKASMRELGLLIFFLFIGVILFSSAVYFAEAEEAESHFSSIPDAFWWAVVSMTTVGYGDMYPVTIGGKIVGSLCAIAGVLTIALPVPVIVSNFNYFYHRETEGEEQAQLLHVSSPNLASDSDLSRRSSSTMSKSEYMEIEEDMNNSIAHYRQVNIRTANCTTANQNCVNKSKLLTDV
T1 sequence (Q14722 whole entry): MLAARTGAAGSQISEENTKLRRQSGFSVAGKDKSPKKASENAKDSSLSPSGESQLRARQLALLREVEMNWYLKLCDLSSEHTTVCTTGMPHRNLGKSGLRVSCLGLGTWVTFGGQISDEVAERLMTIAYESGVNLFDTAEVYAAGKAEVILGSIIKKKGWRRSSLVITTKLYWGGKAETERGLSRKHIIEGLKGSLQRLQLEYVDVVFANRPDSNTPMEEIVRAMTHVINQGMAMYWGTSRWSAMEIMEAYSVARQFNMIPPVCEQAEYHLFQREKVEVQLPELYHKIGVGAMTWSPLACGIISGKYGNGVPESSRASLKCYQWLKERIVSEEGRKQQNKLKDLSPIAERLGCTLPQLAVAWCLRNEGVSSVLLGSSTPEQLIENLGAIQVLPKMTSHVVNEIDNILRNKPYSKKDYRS

Structure (SMILES) | melting point [°C] | activation at 50 µM [1] [%] | activation at 300 µM [1] [%] | activation at 100 µM [1] [%]
CC(C)C1CC(=O)C(C(=O)Nc2ccc(Cl)c(Cl)c2)C(=O)C1 (centres unmarked) [Example 10, N-(3,4-dichlorophenyl)-4-isopropyl-2,6-dioxocyclohexanecarboxamide] | 138 | 38 |  | 
CC1(C)CC(=O)C(C(=S)Nc2ccc(Cl)c(C(F)(F)F)c2)C(=O)C1 [Example 4, N-[4-chloro-3-(trifluoromethyl)phenyl]-4,4-dimethyl-2,6-dioxocyclohexane-carbothioamide] | 101 to 102 |  | 9 | 
CC1(C)CC(=O)C(C(=O)Nc2ccccc2[N+](=O)[O-])C(=O)C1 [Example 6, 4,4-dimethyl-N-(2-nitrophenyl)-2,6-dioxocyclohexanecarboxamide] |  |  |  | 58
CC1(C)COC(=O)C(C(=O)Nc2cccc(C(F)(F)F)c2)C1=O (centres unmarked) [Example 24, N-[3-(trifluoromethyl)phenyl]-5,5-dimethyl-2,4-dioxotetrahydro-2H-pyran-3-carboxamide] |  | 5 |  | 
CCC1(C)CC(=O)C(C(=O)Nc2ccc(F)c(Cl)c2)C(=O)C1 (centres unmarked) [Example 16, N-(3-chloro-4-fluororphenyl)-4-ethyl-4-methyl-2,6-dioxocyclohexanecarboxamide] | 91 to 92 | 18 |  | 
O=C1CSCC(=O)C1C(=O)Nc1ccc(Cl)c(C(F)(F)F)c1 [Example 11, N-[4-chloro-3-(trifluoromethyl)phenyl]-3,5-dioxotetrahydro-2H-thiopyran-4-carboxamide] | 108 to 110 | 106 |  | 
CC1(C)CC(=O)C(C(=O)Nc2ccc(C(F)(F)F)cc2)C(=O)O1 (centres unmarked) [Example 20, N-[4-(trifluoromethyl)phenyl]-6,6-dimethyl-2,4-dioxotetrahydro-2H-pyran-3-carboxamide] | 175.9 to 176.4 | 17 |  | 
CC1(C)CC(=O)C(C(=O)Nc2ccc(Cl)c(Cl)c2)C(=O)O1 (centres unmarked) [Example 23, N-(3,4-dichlorophenyl)-6,6-dimethyl-2,4-dioxotetrahydro-2H-pyran-3-carboxamide] | 212 to 215 | 22 |  | 
CC1(C)CC(=O)C(C(=O)Nc2ccc(Cl)cc2C(F)(F)F)C(=O)C1 [Example 7, N-[4-chloro-2-(trifluoromethyl)phenyl]-4,4-dimethyl-2,6-dioxocyclohexanecarboxamide] |  |  |  | 45
CC1(C)CC(=O)C(C(=O)Nc2cccc([N+](=O)[O-])c2)C(=O)O1 (centres unmarked) [Example 22, N-(3-nitrophenyl)-6,6-dimethyl-2,4-dioxotetrahydro-2H-pyran-3-carboxamide] | 138.4 to 139.6 | 10 |  | 
CC1(C)CC(=O)C(C(=O)Nc2ccc(Cl)c(C(F)(F)F)c2)C(=O)C1 [Example 5, N-[4-chloro-3-(trifluoromethyl)phenyl]-4,4-dimethyl-2,6-dioxocyclohexanecarboxamide] |  | 16 |  | 
CCC1(C)CC(=O)C(C(=O)Nc2ccc(C(F)(F)F)cc2)C(=O)C1 (centres unmarked) [Example 17, N-(4-trifluoromethylphenyl)-4-ethyl-4-methyl-2,6-dioxocyclohexanecarboxamide] | 99 to 100 | 105 |  | 
CC1(C)CC(=O)C(C(=O)Nc2ccc([N+](=O)[O-])cc2)C(=O)C1 [Example 12, 4,4-dimethyl-N-(4-nitrophenyl)-2,6-dioxocyclohexanecarboxamide] |  |  |  | 104
CCC1(C)CC(=O)C(C(=O)Nc2ccc(Cl)c(C(F)(F)F)c2)C(=O)C1 (centres unmarked) [Example 14, N-(4-chloro-3-trifluoromethylphenyl)-4-ethyl-4-methyl-2,6-dioxocyclohexanecarboxamide] | 87 to 88 | 98 |  | 
CC1(C)CC(=O)C(C(=O)Nc2cccc(C(F)(F)F)c2)C(=O)O1 (centres unmarked) [Example 21, N-[3-(trifluoromethyl)phenyl]-6,6-dimethyl-2,4-dioxotetrahydro-2H-pyran-3-carboxamide] | 149.6 to 150.1 | 13 |  | 
CC1(C)CC(=O)C(C(=O)Nc2ccc(Cl)c(C(F)(F)F)c2)C(=O)O1 (centres unmarked) [Example 19, N-[4-chloro-3-(trifluoromethyl)phenyl]-6,6-dimethyl-2,4-dioxotetrahydro-2H-pyran-3-carboxamide] | 156 to 156.4 | 68 |  | 
CC1(C)CC(=O)C(C(=S)Nc2ccc(Cl)c(Cl)c2)C(=O)C1 [Example 3, N-(3,4-dichlorophenyl)-4,4-dimethyl-2,6-dioxocyclohexanecarbothioamide] | 113 to 116 |  |  | 

More lines, now with the values ahead:

melting point [°C] | activation at 50 µM [1] [%] | activation at 300 µM [1] [%] | activation at 100 µM [1] [%] | Structure (SMILES)
 | 8 |  |  | CC1(C)CC(=O)C(C(=O)Nc2cccc(C(F)(F)F)c2)C(=O)C1c1ccccc1 (centres unmarked) [Example 30, 4,4-Dimethyl-2,6-dioxo-3-phenyl-cyclohexanecarboxylic acid(3-trifluoromethyl-phenyl)-amide]
 | 1 |  |  | COCC1C(=O)C(C(=O)Nc2cccc(C(F)(F)F)c2)C(=O)CC1(C)C (centres unmarked) [Example 33, 3-Methoxymethyl-4,4-dimethyl-2,6-dioxo-cyclohexanecarboxylic acid (3-trifluoromethyl-phenyl)-amide]
 |  | 95 |  | O=C1OC2(CCCC2)OC(=O)C1C(=S)Nc1ccc(Cl)c(C(F)(F)F)c1 [Example 34, 7,9-Dioxo-6,10-dioxa-spiro[4.5]decane-8-carbothioic acid(4-chloro-3-trifluoromethyl-phenyl)-amide]
 | 6 |  |  | CC1(c2ccccc2)CCC(=O)C(C(=O)Nc2cccc(C(F)(F)F)c2)C1=O (centres unmarked) [Example 32, 3-Methyl-2,6-dioxo-3-phenyl-cyclohexanecarboxylic acid(3-trifluoromethyl-phenyl)-amide]
 | 10 |  |  | CC1(C)COC(=O)C(C(=O)Nc2ccc(C(F)(F)F)cc2)C1=O (centres unmarked) [Example 25, N-[4-(trifluoromethyl)phenyl]-5,5-dimethyl-2,4-dioxotetrahydro-2H-pyran-3-carboxamide]
131 to 132 | 258 |  |  | CC1(C)CC(=O)C(C(=O)Nc2cc(F)cc(F)c2)C(=O)C1F (centres unmarked) [Example 29, 3-Fluoro-4,4-dimethyl-2,6-dioxo-cyclohexanecarboxylic acid(3,5-difluoro-phenyl)-amide]
 | 227 |  |  | CCOC(=O)C1C(=O)C(C(=O)Nc2cccc(C(F)(F)F)c2)C(=O)C2CCCCC21 (centres unmarked) [Example 31, 2,4-Dioxo-3-(3-trifluoromethyl-phenylcarbamoyl)-decahydro-naphthalene-1-carboxylic acid ethyl ester]
129 | 191 |  |  | CC1(C)CC(=O)C(C(=O)Nc2ccc(C(F)(F)F)cc2)C(=O)C1F (centres unmarked) [Example 27, 3-Fluoro-4,4-dimethyl-2,6-dioxo-cyclohexanecarboxylic acid(4-trifluoromethyl-phenyl)-amide]
 | 279 |  |  | CC1(C)CC(=O)C(C(=O)Nc2cc(Cl)cc(Cl)c2)C(=O)C1F (centres unmarked) [Example 28, 3-Fluoro-4,4-dimethyl-2,6-dioxo-cyclohexanecarboxylic acid(3,5-dichloro-phenyl)-amide]
144 to 145 | 173 |  |  | CC1(C)COC(=O)C(C(=O)Nc2ccc(Cl)c(C(F)(F)F)c2)C1=O (centres unmarked) [Example 26, N-[4-chloro-3-(trifluoromethyl)phenyl]-5,5-dimethyl-2,4-dioxotetrahydro-2H-pyran-3-carboxamide]
